Reference: patent publication US11358992B2, “Cell-penetrating cereblon recombinant fusion protein and use thereof” (UPPTHERA, priority 2020, dated 2022)

System: MM1.S lenalidomide-resistant cells
Assay: Cell viability (EZ-Cytox) of lenalidomide-resistant multiple myeloma cells
Assay type: cell-based
Conditions: 42 hours culture + 3 hours EZ-Cytox, absorbance 450 nm
Method: The MM1.S cell line (American Type Culture Collection, ATCC from USA) was incubated in RPMI1640 medium containing 10% FBS and 1% penicillin/streptomycin at 37° C. under 5% CO2. The Lenalidomide-resistant MM1.S cell line was established by gradually adding […] lenalidomide (Sigma-Aldrich, Cat No. D2438) from 5 μM to 200 μM to the cell line culture.
In order to evaluate cytotoxic effects of the 30Kcα-CRBN recombinant fusion protein, 1×104 MM1.S lenalidomide-resistant cells were seeded in each well of a 96 well plate. 200 μM of lenalidomide and/or 3 μM of 30Kcα-CRBN recombinant fusion protein were added to each well according to the experimental group. The total medium volume of each well was adjusted to 100 μL. Then, each medium was cultured for 42 hours, and 10 μl of EZ-Cytox (Cat. No. EZ-3000 from Dogen) was added to each well, followed by incubation for 3 hours. Thereafter, absorbance was measured at 450 nm using a microplate reader (Clarostar™ from BMGlabtech), and a cell viability (%) was calculated by using the measured absorbance and shown in FIG. 2.

Molecule	cell viability (lenalidomide 200 μM alone, without 30Kcα-CRBN fusion protein, FIG. 2A)	reduction of cell viability compared with the control (3 μM 30Kcα-CRBN fusion protein in combination with 200 μM lenalidomide, FIG. 2B)
Nc1cccc2c1CN(C1CCC(=O)NC1=O)C2=O (centres unmarked) [lenalidomide]	could not be reduced	
30Kcα-CRBN recombinant fusion protein: Fusion recombinant protein of 30Kc19 α-helix domain (30Kc19α, SEQ ID NO: 1) linked N-terminally to human cereblon (SEQ ID NO: 2) (protein, 30Kc alpha-CRBN) ADSDVPNDILEEQLYNSVVVADYDSAVEKSKHLYEEKKSEVITNVVNKLIRNNKMNCMEYAYQLWLQGSKDIVRDCFPVEFRLIFAENMAGEGDQQDAAHNMGNHLPLLPAESEEEDEMEVEDQDSKEAKKPNIINFDTSLPTSHTYLGADMEEFHGRTLHDDDSCQVIPVLPQVMMILIPGQTLPLQLFHPQEVSMVRNLIQKDRTFAVLAYSNVQEREAQFGTTAEIYAYREEQDFGIEIVKVKAIGRQRFKVLELRTQSDGIQQAKVQILPECVLPSTMSAVQLESLNKCQIFPSKPVSREDQCSYKWWQKYQKRKFHCANLTSWPRWLYSLYDAETLMDRIKKQLREWDENLKDDSLPSNPIDFSYRVAACLPIDDVLRIQLLKIGSAIQRLRCELDIMNKCTSLCCKQCQETEITTKNEIFSLSLCGPMAAYVNPHGYVHETLTVYKACNLNLIGRPSTEHSWFPGYAWTVAQCKICASHIGWKFTATKKDMSPQKFWGLTRSALLPTIPDTEDEISPDKVILCL		~50%
